Key:
[1] = tested on: ASPC-1; assay: 14C-fucose binding to cells
Protocol: (§1) Binding of fucose (fucose refers to L-fucose, unless otherwise stated) to the fucosylated sugar chain high-producing cell line ASPC-1 and fucosylated sugar chain low-producing cell line PANC-1 was investigated using radiolabeled fucose.
(§2) In a 12-well culture plate, 1×10^5 cells were seeded and cultured overnight, and ^14C-fucose (specific activity: 55 mCi/mmol) diluted with BSA-PBS at a concentration of 0-200 nM was added to the cells and cultured at 4° C. for 1 hr. The cells were washed with cold BSA-PBS, lysed by 1% Triton X100/PBS-0.25% trypsin, and the radioactivity of the ^14C-fucose bound to the cell membrane was measured (FIGS. 3 and 4).
In another experiment, in a 12-well culture plate, 2×10^5 cells were seeded and cultured overnight, 10 nmol of ^14C-fucose (specific activity: 55 mCi/mmol) were added to the cells either singly or together with 1 pmol of fucose, and cultured at 4° C. for 1, 3, or 24 hr. The cells under each condition were washed with cold BSA-PBS, lysed by 1% Triton X100/PBS-0.25% trypsin, and the radioactivity of the ^14C-fucose was measured (FIG. 5).

[2] = tested on: PANC-1; assay: 14C-fucose binding to cells; settings: 14C-fucose 0-200 nM, 4° C., 1 hr
Protocol: as §1, §2

C[C@H](O)[C@@H](O)[C@@H](O)[C@H](O)C=O [fucose, L-fucose]
binding of 14C-fucose in competition with excessive non-labeled fucose ([1]; 10 nmol 14C-fucose with non-labeled fucose, 4° C., 1, 3 or 24 hr): inhibited | binding of fucose to cells (affinity) ([1]; 14C-fucose 0-200 nM, 4° C., 1 hr, compared with PANC-1): affinity is higher | binding of fucose to cells [2]: binds to ASPC-1 and PANC-1 via a receptor-like mechanism
